From the supplement of paper PMC10307832

What was measured:
Test in all cases: relative viability (nuclei count vs DMSO), 5 days (fraction); higher = more cells survive
Selisistat + Navitoclax = compound: C1CC(C2=C(C1)C3=C(N2)C=CC(=C3)Cl)C(=O)N [Selisistat] + CC1(C)CCC(c2ccc(Cl)cc2)=C(CN2CCN(c3ccc(C(=O)NS(=O)(=O)c4ccc(N[C@H](CCN5CCOCC5)CSc5ccccc5)c(S(=O)(=O)C(F)(F)F)c4)cc3)CC2)C1 [Navitoclax] (partner 0.5 µM)
In short: (§1)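 A single step with final 0.05% Triton X-100, 1% formaldehyde and 1 ug/ml Hoechst fixed the cells and stained nuclei 5 days after treatment. Lung cancer cell lines in 1536-well plates had been treated by pin tool the day after seeding with one drug alone or a fixed anchor-drug dose plus five library-drug doses (not always all listed) in √10 steps, and nuclei were counted on 4× images. Relative viability is the ratio of nuclei in treated wells to nuclei in vehicle wells, taken as the median of duplicate plates.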

Selisistat + Foretinib = compound: C1CC(C2=C(C1)C3=C(N2)C=CC(=C3)Cl)C(=O)N [Selisistat] + COc1cc2c(Oc3ccc(NC(=O)C4(C(=O)Nc5ccc(F)cc5)CC4)cc3F)ccnc2cc1OCCCN1CCOCC1 [Foretinib] (partner 0.25 µM)
In short: as §1

Serdemetan = compound: c1ccc2c(CCNc3ccc(Nc4ccncc4)cc3)c[nH]c2c1 [Serdemetan]
In short: (§2)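 Lung cancer cell lines in 1536-well plates were kept overnight at 37 °C, then pinned with five library-drug doses (not always all listed) spaced by √10 on vehicle-anchored plates. After 5 days without medium change, cells were fixed, permeabilised and Hoechst-stained in one step, imaged at 4×, and nuclei were counted with MetaXpress. Viability is treated-well nuclei divided by vehicle-well nuclei, taken as the median over plates. Plates passed only with control CV below 25% and at least one doubling.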

Selisistat = compound: C1CC(C2=C(C1)C3=C(N2)C=CC(=C3)Cl)C(=O)N [Selisistat]
In short: as §2

Cell Line | relative viability (Selisistat + Navitoclax; first compound 0.4 µM) | relative viability (Selisistat + Navitoclax; first compound 1.265 µM) | relative viability (Selisistat + Navitoclax; first compound 4 µM) | relative viability (Selisistat + Navitoclax; first compound 12.65 µM) | relative viability (Selisistat + Navitoclax; first compound 40 µM) | relative viability (Selisistat + Foretinib; first compound 0.4 µM) | relative viability (Selisistat + Foretinib; first compound 1.265 µM) | relative viability (Selisistat + Foretinib; first compound 4 µM) | relative viability (Selisistat + Foretinib; first compound 12.65 µM) | relative viability (Selisistat + Foretinib; first compound 40 µM) | relative viability (Serdemetan; 0.04 µM) | relative viability (Serdemetan; 0.1265 µM) | relative viability (Serdemetan; 0.4 µM) | relative viability (Serdemetan; 1.265 µM) | relative viability (Serdemetan; 4 µM) | relative viability (Selisistat; 0.4 µM) | relative viability (Selisistat; 1.265 µM) | relative viability (Selisistat; 4 µM) | relative viability (Selisistat; 12.65 µM) | relative viability (Selisistat; 40 µM)
EBC-1 | 0.526 | 0.416 | 0.433 | 0.448 | 0.459 | 0.111 | 0.0934 | 0.0874 | 0.0996 | 0.104 | 0.903 | 0.931 | 0.943 | 0.857 | 0.722 | 0.994 | 0.963 | 1.01 | 0.956 | 0.954
NCI-H1915 | 0.782 | 0.776 | 0.83 | 0.797 | 0.804 | 1.11 | 1.05 | 1.14 | 1.06 | 1.18 | 1 | 1.02 | 0.996 | 0.819 | 0.948 | 0.992 | 1.03 | 0.795 | 0.963 | 1
NCI-H596 | 0.952 | 0.959 | 0.944 | 0.904 | 0.895 | 1.09 | 0.693 | 0.846 | 0.89 | 0.585 | 1.03 | 0.981 | 0.989 | 0.76 | 0.768 | 1.08 | 0.994 | 0.849 | 1.03 | 0.983
NCI-H322M | 1.26 | 1.18 | – | 1.26 | 1.47 | 0.953 | 1.01 | 0.884 | 1.13 | 1.11 | 0.9 | 1 | 0.901 | 0.791 | 0.874 | 0.98 | 1.01 | – | 0.994 | 1.01
NCI-H1299 | 1.1 | 1.08 | 1.01 | 1.05 | 1.04 | 1.16 | 1.13 | 1.15 | 1.07 | 1.11 | 1.01 | 1 | 0.975 | 0.895 | 0.754 | 1.05 | 1.03 | 1.04 | 1.02 | 1.01
NCI-H2228 | 1.15 | 0.894 | 0.759 | 0.939 | 0.747 | 0.979 | 0.931 | 0.685 | 0.843 | 0.916 | 0.974 | 0.98 | 0.945 | 0.342 | 0.336 | 0.9 | 1.12 | 0.966 | 1.05 | 1.11
IA-LM | 0.787 | 0.82 | 0.946 | 0.818 | 0.835 | 1.21 | 1.07 | 1.19 | 0.902 | 1.19 | 0.942 | 0.963 | 0.956 | 0.711 | 0.505 | 0.945 | 0.959 | 0.918 | 0.9 | 1.01
NCI-H647 | 1.11 | – | – | 0.993 | 1.13 | 1.18 | 1.13 | 1.19 | 1.16 | 1.25 | 0.905 | 0.964 | 0.964 | 0.819 | 0.655 | 0.958 | 0.964 | 0.826 | 0.959 | 1.03
SK-MES-1 | 1.29 | 1.14 | 1.4 | 1.26 | 1.26 | 0.908 | 0.762 | 0.624 | 0.879 | 0.883 | 0.959 | 1.01 | 0.971 | 0.831 | 0.741 | 1.09 | 0.986 | 0.955 | 0.93 | 0.976
NCI-H2170 | 0.601 | 0.623 | 0.618 | 0.708 | 0.713 | 1.11 | 1 | 0.943 | 1.03 | 1.08 | 1 | 1.02 | 1 | 0.972 | 0.985 | 1.02 | 0.978 | 0.956 | 1.03 | 1.1
NCI-H2085 | 1.16 | 1.15 | 1.12 | 1.15 | 1.21 | 0.971 | 0.98 | 0.873 | 0.881 | 0.884 | 0.964 | 0.968 | 0.897 | 0.844 | 0.744 | 1.11 | 0.991 | 0.858 | 0.965 | 1.05
SW 1573 | 0.997 | 0.781 | 0.93 | 1.15 | 0.934 | 0.954 | 0.806 | 0.821 | 0.931 | 0.929 | 0.904 | 1.11 | 0.966 | 0.48 | 0.343 | 1.12 | 0.89 | 0.896 | 1.03 | 1.05
NCI-H727 | 0.501 | 0.445 | – | – | 0.38 | 0.883 | 1.05 | – | 1.04 | 0.872 | 0.936 | 0.808 | 1.07 | 0.669 | 0.555 | 0.95 | 1 | – | 0.863 | 0.895
NCI-H441 | 0.608 | 0.619 | – | 0.697 | 0.626 | 0.936 | 1.12 | 0.961 | 0.951 | 0.817 | 0.981 | 1.06 | 1.06 | 0.815 | 0.78 | 1.22 | 1.11 | 0.774 | 0.955 | 1.01
LOU-NH91 | 0.695 | 0.637 | 0.58 | 0.664 | 0.707 | 1.01 | 0.938 | 0.872 | 0.928 | 0.896 | 1.02 | 0.946 | 0.694 | 0.783 | 0.999 | 1.05 | 0.938 | 0.884 | 0.966 | 0.973
